Reference: patent publication US4105766A, “4,5-Dihydro-5-oxopyrazolo[1,5-a]quinazoline-3-carboxylic acid derivatives” (Sterling Drug Inc., priority 1977, dated 1978)

Columns and labels:
[1] = test system: passive cutaneous anaphylaxis; assay: passive cutaneous anaphylaxis test in rats (anti-allergy); format: in vivo; settings: for inhibition in vivo at 100 mg/kg / ED50: Rattus norvegicus, po; for inhibition in vivo at 100 mg/kg / % Inhibition (passive cutaneous anaphylaxis) / R (ratio, passive cutaneous anaphylaxis) / ED50: rats; for inhibition in vivo at 100 mg/kg / % Inhibition (passive cutaneous anaphylaxis): standard dose of 100 mg./kg. (p.o.); for R (ratio, passive cutaneous anaphylaxis): R 1.0 to 2.0 inactive, 2.0 to 4.0 weakly active, 4.0 to 8.0 moderately active, >8.0 strongly active; for ED50: passive cutaneous anaphylaxis, read-out: Average Effective Dose50 (AED50)
From the text: (1) The inhibition of carrageenin-induced foot edema test essentially described by Winter et al., Proc. Soc. Exp. Biol. and Med. 111, 544 (1962) as modified by Van Arman et al., J. Pharmacol. Exptl. Therap. 150, 328 (1965) and (2) a modification of the inhibition of adjuvant-induced arthritis test described by Pierson, J. Chronic Diseases 16, 863 (1963) and Glenn et al., Am. J. Vet. Res. 26, 1180 (1965), which were used to establish the anti-inflammatory activities of the compounds; and the passive cutaneous anaphylaxis test described by Mielens et al., Int. Arch. Allergy Appl. Immunol. 47, 633-649 (1974) which was used to establish the anti-allergy activity of the compounds.
Results are expressed either in terms of % Inhibition at a standard dose of 100 mg./kg. (p.o.), as an Average Effective Dose50 (AED50), or as a ratio, R, where: [formula]

Trypanosoma brucei = assay: trypanosomicidal test in infected mice; format: in vivo, Trypanosoma brucei (in mice)
Procedure: Trypanosomicidal activity of the compounds of the invention was determined in a test procedure in which albino female mice (Taconic Farms) weighing 20± 2 g. were intraperitoneally injected 3 days prior to initial medication with 0.2 ml. of an inoculum containing 500 Trypanosoma brucei organisms in 0.85% sterile saline. Blood for infecting purposes was obtained via cardiac puncture of a donor mouse previously determined to have a high parasitemia. Test medications to groups of five mice were started 3 days after infection at a time when the animals had begun to develop a rising blood parasitemia. […] Groups of 10 non-medicated infected control mice and five animals medicated with the reference compound LAMPIT® (tetrahydro-3-methyl-4-[(5-nitrofurfurylidene)amino]-2H-1,4-thiazine-1,1-dioxide) were included in each screening test. The test system is based on the survival of animals medicated with the test compound, and those mice alive at the end of 28 days post-infection were recorded as cured. (Non-medicated infected control mice rarely succumb later than 5 to 6 days post-innoculation with T. brucei). A compound was considered active if at least two of five animals survived until the termination of a 28 day post-infection holding period.
(§1) Results obtained in amoebacidal and trypanosomicidal tests on the compounds of the invention against E. criceti and T. brucei, respectively, are given in the table below. Results are expressed as a ratio: Number of Animals Cleared/Total Test Animals.

Entamoeba criceti = assay: amoebacidal test in naturally infected hamsters; format: in vivo, Entamoeba criceti (in hamsters)
Procedure: Anti-parasitic activity of the compounds was shown by the following test procedures. Amoebacidal activity was shown in a test in which 100 or more female hamsters (Sprague-Dawley) weighing between 90 and 130 g. were individually weighed and sorted into groups of five animals each averaging either 100 ± 10 g. or 120 ± 10g. The test compounds (at least 200 mg.) and a reference standard, N,N'-(phenylenedimethylene)-bis[α,α-dichloro-N-(2-ethoxyethyl)acetamide] (FALMONOX®), were dissolved or suspended in 10 percent gelatin. The test compounds and the reference standard were administered to the naturally infected hamsters intragastrically via syringe in equally subdivided doses of 0.5 ml. […] On the fourth day each of the test animals and the five hamsters receiving the reference drug, as well as non-medicated infected control animals, were killed and a portion of the mucus from the wall of the cecum was mixed in a drop of 0.85% sodium chloride. The preparation was examined under low power (100 ×) of a compound microscope for the presence of motile trophozoites of Entamoeba criceti, and when a preparation was determined to be free from trophozoites, a second specimen was taken from another part of the cecum of the same animal and thoroughly examined before the animal was declared cleared of amoebas. […] Results were recorded as a fraction: number of hamsters cleared/number of hamsters treated.
as §1

[2] = test system: adjuvant-induced arthritis; assay: adjuvant arthritis test (AA), inhibition of adjuvant-induced arthritis in rats; format: in vivo; settings: Rattus norvegicus; for inhibition in vivo at 80 µmol/kg: dose .08 mmole/kg.; for inhibition in vivo at 324 µmol/kg: dose .324 mmole/kg.; for inhibition in vivo at 20 µmol/kg: dose .02 mmole/kg.
[3] = test system: carrageenin-induced foot edema; assay: carrageenin-edema test (CE), inhibition of carrageenin-induced foot edema in rats; format: in vivo; settings: Rattus norvegicus, read-out: % Inhibition C.E.; for inhibition in vivo at 324 µmol/kg: dose .324 mmole/kg.; for inhibition in vivo at 80 µmol/kg: dose .08 mmole/kg.
Procedure: (1) The inhibition of carrageenin-induced foot edema test essentially described by Winter et al., Proc. Soc. […] Therap. […] J. Vet. […] Arch. Allergy Appl. Immunol.
Here, and elsewhere in other tables which follow, compounds are identified by the Example number above where their preparations are recorded. For purposes of comparison, data are also given for the reference compound 4,5-dihydro-5-oxopyrazolo[1,5-a]quinazoline-3-carboxylic acid disclosed by Wright, ibid., identified here and elsewhere in the tables which follow as "Ref.".

[4] = dose 200 mg./kg. p.o. 2×/day × 4

CCOC(=O)c1cnn2c1[nH]c(=O)c1cc(C)ccc12 [Example 1A]
inhibition in vivo at 100 mg/kg [1]: 63%

CCOC(=O)c1cnn2c1[nH]c(=O)c1ccc(C)cc12 [Example 1B]
% Inhibition (passive cutaneous anaphylaxis) [1]: Inac.

CCOC(=O)c1cnn2c1[nH]c(=O)c1cc(Cl)ccc12 [Example 1C]
inhibition in vivo at 100 mg/kg [1]: 48%

CCOC(=O)c1cnn2c1[nH]c(=O)c1cc(F)ccc12 [Example 1E]
% Inhibition (passive cutaneous anaphylaxis) [1]: Inac.

CCOC(=O)c1cnn2c3ccccc3c(=O)n(C)c12 [Example 2, ethyl 4-methyl-4,5-dihydro-5-oxopyrazolo[1,5-a]quinazoline-3-carboxylate]
No. Cleared/No. Tested, Tryp. (Trypanosoma brucei; dose 50 mg./kg. p.o., i.p.): 0/5 | No. Cleared/No. Tested, Tryp. (Trypanosoma brucei; dose 200 mg./kg. p.o., i.p.): 2/5

CCOC(=O)c1cnn2c3ccc(C)cc3c(=O)n(C)c12 [Example 2F]
No. Cleared/No. Tested, Amoeba (Entamoeba criceti; dose 25 mg./kg.): 0/5 | No. Cleared/No. Tested, Amoeba (Entamoeba criceti; dose 100 mg./kg.): 5/5 | inhibition in vivo at 100 mg/kg [1]: 6% | % Inhibition (passive cutaneous anaphylaxis) [1]: Inac.

CCOC(=O)c1cnn2c3cc(C)ccc3c(=O)n(C)c12 [Example 2G]
inhibition in vivo at 100 mg/kg [1]: 46%

CCOC(=O)c1cnn2c3ccc(Cl)cc3c(=O)n(C)c12 [Example 2H]
No. Cleared/No. Tested, Amoeba (Entamoeba criceti; dose 100 mg./kg.): 2/4 | inhibition in vivo at 100 mg/kg [1]: 32%

CCOC(=O)c1cnn2c3ccc(F)cc3c(=O)n(C)c12 [Example 2K]
R (ratio, passive cutaneous anaphylaxis) [1]: 3.0

CCOC(=O)c1cnn2c3ccc([N+](=O)[O-])cc3c(=O)n(C)c12 [Example 4, ethyl 4-methyl-7-nitro-4,5-dihydro-5-oxopyrazolo[1,5-a]quinazoline-3-carboxylate]
No. Cleared/No. Tested, Amoeba (Entamoeba criceti; dose 100 mg./kg.): 2/4

Cn1c(=O)c2ccccc2n2ncc(C(=O)O)c12 [Example 7, 4-methyl-4,5-dihydro-5-oxopyrazolo[1,5-a]quinazoline-3-carboxylic acid]
inhibition in vivo at 80 µmol/kg [2]: 16% | inhibition in vivo at 324 µmol/kg [2]: 39% | inhibition in vivo at 100 mg/kg [1]: 68% | No. Cleared/No. Tested, Tryp. (Trypanosoma brucei; dose 100 mg./kg. p.o. 2×/day × 4): 0/5 | No. Cleared/No. Tested, Tryp. (Trypanosoma brucei; [4]): 5/5 | inhibition in vivo at 324 µmol/kg [3]: 11%

CCn1c(=O)c2ccccc2n2ncc(C(=O)O)c12 [Example 7A]
inhibition in vivo at 80 µmol/kg [2]: 27% | ED50 [1]: 12 mg/kg | inhibition in vivo at 100 mg/kg [1]: 81% | inhibition in vivo at 324 µmol/kg [3]: 33%

C=CCn1c(=O)c2ccccc2n2ncc(C(=O)O)c12 [Example 7B, 4-(2-propenyl)-4,5-dihydro-5-oxopyrazolo[1,5-a]quinazoline-3-carboxylic acid]
inhibition in vivo at 20 µmol/kg [2]: 18% | inhibition in vivo at 80 µmol/kg [2]: 34% | inhibition in vivo at 324 µmol/kg [2]: 84% | inhibition in vivo at 100 mg/kg [1]: 40% | inhibition in vivo at 80 µmol/kg [3]: 38% | inhibition in vivo at 324 µmol/kg [3]: 73%

O=C(O)c1cnn2c3ccccc3c(=O)n(CC3CC3)c12 [Example 7C]
inhibition in vivo at 324 µmol/kg [2]: 74% | R (ratio, passive cutaneous anaphylaxis) [1]: 6.5 | inhibition in vivo at 80 µmol/kg [3]: 25% | inhibition in vivo at 324 µmol/kg [3]: 33%

C=C(C)Cn1c(=O)c2ccccc2n2ncc(C(=O)O)c12 [Example 7D]
inhibition in vivo at 324 µmol/kg [2]: 43% | R (ratio, passive cutaneous anaphylaxis) [1]: 4.6 | inhibition in vivo at 80 µmol/kg [3]: 15% | inhibition in vivo at 324 µmol/kg [3]: 24%

CC(C)=CCn1c(=O)c2ccccc2n2ncc(C(=O)O)c12 [Example 7E]
inhibition in vivo at 324 µmol/kg [2]: 34% | R (ratio, passive cutaneous anaphylaxis) [1]: 3.8 | inhibition in vivo at 80 µmol/kg [3]: 3% | inhibition in vivo at 324 µmol/kg [3]: 4%

Cc1ccc2c(c1)c(=O)[nH]c1c(C(=O)O)cnn12 [Example 7F]
inhibition in vivo at 100 mg/kg [1]: 65%

Cc1ccc2c(=O)[nH]c3c(C(=O)O)cnn3c2c1 [Example 7G]
ED50 [1]: ~15 mg/kg

Cc1ccc2c(c1)c(=O)n(C)c1c(C(=O)O)cnn21 [Example 7H]
ED50 [1]: 34 mg/kg | inhibition in vivo at 100 mg/kg [1]: 73% | No. Cleared/No. Tested, Tryp. (Trypanosoma brucei; [4]): 10/10 | No. Cleared/No. Tested, Tryp. (Trypanosoma brucei; dose 200 mg./kg. p.o., i.p.): 4/5

O=C(O)c1cnn2c1[nH]c(=O)c1cc(Cl)ccc12 [Example 7J]
ED50 [1]: 5 to 10 mg/kg | inhibition in vivo at 100 mg/kg [1]: 92%

Cn1c(=O)c2cc(Cl)ccc2n2ncc(C(=O)O)c12 [Example 7K]
ED50 [1]: 9 mg/kg | No. Cleared/No. Tested, Tryp. (Trypanosoma brucei; dose 200 mg./kg. p.o., i.p.): 2/4

O=C(O)c1cnn2c1[nH]c(=O)c1ccc(Cl)cc12 [Example 7L]
No. Cleared/No. Tested, Amoeba (Entamoeba criceti; dose 100 mg./kg.): 2/5 | inhibition in vivo at 100 mg/kg [1]: 74%

Cn1c(=O)c2ccc(Cl)cc2n2ncc(C(=O)O)c12 [Example 7M]
inhibition in vivo at 100 mg/kg [1]: 56% | No. Cleared/No. Tested, Tryp. (Trypanosoma brucei; dose 200 mg./kg. p.o., i.p.): 5/5

Cn1c(=O)c2cc(F)ccc2n2ncc(C(=O)O)c12 [Example 7P]
Amoeba (activity in words) (Entamoeba criceti; dose not given): Inac. (inactive when zero or one of the five hamsters were trophozoite free) | % Inhibition (passive cutaneous anaphylaxis) [1]: Inac. | No. Cleared/No. Tested, Tryp. (Trypanosoma brucei; dose 200 mg./kg. p.o., i.p.): 3/5 | inhibition in vivo at 324 µmol/kg [3]: 0%

C=CCn1c(=O)c2cc(F)ccc2n2ncc(C(=O)O)c12 [Example 7Q]
inhibition in vivo at 324 µmol/kg [2]: 72% | inhibition in vivo at 80 µmol/kg [3]: 0% | inhibition in vivo at 324 µmol/kg [3]: 4%

Cn1c(=O)c2cc(Br)ccc2n2ncc(C(=O)O)c12 [Example 7R]
inhibition in vivo at 100 mg/kg [1]: 63%

Cn1c(=O)c2cc([N+](=O)[O-])ccc2n2ncc(C(=O)O)c12 [Example 7S]
ED50 [1]: 37 mg/kg

Cn1c(=O)c2cc(NC(=S)Nc3ccccc3)ccc2n2ncc(C(=O)O)c12 [Example 7T]
No. Cleared/No. Tested, Amoeba (Entamoeba criceti; dose 50 mg./kg.): 0/3 | No. Cleared/No. Tested, Amoeba (Entamoeba criceti; dose 100 mg./kg.): 3/3 | Tryp. (activity in words) (Trypanosoma brucei; dose not given): Inac. (inactive if none of the animals survived to the end of the test)

C=CCn1c(=O)c2ccccc2n2ncc(C(=O)O)c12 [Example 8, sodium 4-(2-propenyl)-4,5-dihydro-5-oxopyrazolo[1,5-a]quinazoline-3-carboxylate]
inhibition in vivo at 20 µmol/kg [2]: 29% | inhibition in vivo at 80 µmol/kg [2]: 47% | inhibition in vivo at 324 µmol/kg [2]: 80% | inhibition in vivo at 90 µmol/kg ([3]; dose .09 mmole/kg.): 20% | inhibition in vivo at 360 µmol/kg ([3]; dose .36 mmole/kg.): 31%

Cn1c(=O)c2ccccc2n2ncc(C(=O)OCOC(=O)C(C)(C)C)c12 [Example 9, pivaloyloxymethyl 4-methyl-4,5-dihydro-5-oxopyrazolo[1,5-a]quinazoline-3-carboxylate]
R (ratio, passive cutaneous anaphylaxis) [1]: 6.7

Cn1c(=O)c2cc(N)ccc2n2ncc(C(=O)O)c12 [Example 10, 7-amino-4-methyl-4,5-dihydro-5-oxopyrazolo[1,5-a]quinazoline-3-carboxylic acid]
No. Cleared/No. Tested, Amoeba (Entamoeba criceti; dose 50 mg./kg.): 0/5 | No. Cleared/No. Tested, Amoeba (Entamoeba criceti; dose 100 mg./kg.): 5/5

O=C(O)c1cnn2c1[nH]c(=O)c1ccccc12 [Ref., 4,5-dihydro-5-oxopyrazolo[1,5-a]quinazoline-3-carboxylic acid]
inhibition in vivo at 20 µmol/kg [2]: 26% | inhibition in vivo at 80 µmol/kg [2]: 31% | inhibition in vivo at 324 µmol/kg [2]: 10% | ED50 [1]: 2 to 15 mg/kg | inhibition in vivo at 100 mg/kg [1]: 62% | anti-allergic activity (in words) ([1]; rat, in vivo): possesses anti-allergic activity | inhibition in vivo at 80 µmol/kg [3]: 0% | inhibition in vivo at 324 µmol/kg [3]: 7%
